Assay results: patent US11510931B2, “Compositions and methods for treating ophthalmic conditions” (MEDICON PHARMACEUTICALS, INC., priority 2016, dated 2022)

Experiments:
PGE2 = PGE2 levels in tears and cornea of rabbits by ELISA; format: in vivo, rabbit; conditions: for PGE2 levels in the cornea: administered once topically, 1 h later, FIG. 9B; for PGE2 levels in the cornea, % of the vehicle value: day 6, PS 2.3%, diclofenac 0.1%
Procedure: The effects of PS, ketorolac and dicofenac (the latter two ophthalmic NSAIDs known to induce corneal melt) on the tear levels of PGE2 in rabbits with concanavalin A-induced dry eye were compared. Three eye drops of PS 1.5% or of commercially available ketorolac 0.5% were given at 0 time, and 1 h later to rabbits with concanavalin A-induced DED. Tears were obtained at 2 h and the levels of PGE2 were determined by ELISA. PGE2 in tears of naïve rabbits (not exposed to concanavalin A nor treated) was also measured. The PGE2 levels (mean±SEM) were: Naïve, 110.4±12.6 ng/ml; PS-treated, 115.4±15.8 ng/ml; Ketorolac-treated, 77.7±8.7 ng/ml. The difference in PS vs. ketorolac was significant, p<0.02; as was the difference in ketorolac vs naïve, p<0.03. Regarding this parameter, PS differs radically form ketorolac, which induces corneal melt.
Levels of PGE2 in the corneas of three groups of rabbits were determined by ELISA. Rabbits were treated with PS 1.6% or ketorolac 0.5% eye drops topically applied to their eyes or were not treated (naïve group). Results in pg/mg protein (mean±SEM). Naïve=787.3±96.3; PS=880.6±110.3; Ketrolorac=247.2±187.4 (p<0.01 vs PS).
Rabbits with DED induced by concanavalin A as above were treated for 6 days with vehicle, or PS 2.3% or ketorolac 0.5% or diclofenac 0.1%. Compared to the vehicle group, on day 6 the PGE2 levels in the cornea were 106% of the vehicle value in the PS group (not a statistically significant difference), 1.3% in the ketorolac group (p<0.0001 vs. vehicle, and 2.3% in the diclofenac group (p<0.0001 vs. vehicle).
It was determined that the levels of PGE2 in rabbit tears in three groups of rabbits, naïve and those with Con A-induced DED that were treated for 1 week either with PS or vehicle.
In an acute experiment, administered once topically to the eyes of four groups of rabbits with Con A-induced DED was one of the following: vehicle, PS, ketorolac or diclofenac; the latter two are NSAIDs used for the treatment of ocular inflammation and pain. It was determined that the levels of PGE2 in the cornea of these rabbits obtained 1 h later as well as in the corneas of naïve rabbits.

[1] = tested on: concanavalin A-induced dry eye in rabbits; assay: Concanavalin A (Con A)-induced dry eye disease (DED) model in rabbits: TBUT, Schirmer test, tear osmolarity, tear lactoferrin; format: in vivo, rabbit; conditions: for TBUT, osmolarity and STT: after 1 week of treatment with NSAID, FIG. 5
Procedure: To assess the efficacy of PS on DED an improved concanavalin A model was used. In the concanavalin A model, dry eye is induced by injecting the lacrimal glands of a mammal with concanavalin A, a selective T cell mitogen that induces a lymphocytic infiltrate in these glands. The concanavalin A model is generally described in (Barabino S. Animal models of dry eye. Arch Soc Esp Oftalmol. 2005; 80(12):693-4). Concanavalin A was injected to the lacrimal glands under ultrasound guidance, thus eliminating injections to the vicinity of the gland (as opposed to the gland itself). The head and the tail of the major lacrimal gland of the rabbit were injected separately. The dose of concanavalin A was optimized for DED signs.
In the testing described below, four markers of DED are monitored: the tear break up time (TBUT), the Schirmer test, tear osmolarity, and tear lactoferrin levels. All assays were performed at the same clock time (±1 hr) to avoid assay variability on account of circadian variations.
In an efficacy experiment using the concanavalin A model, one group of rabbits was treated with compound 5, also known as phosphosulindac and abbreviated as PS, 1.5% eye drops and one group with vehicle. […] It is thus clear that PS applied topically suppresses DED.
Con A was injected under ultrasound guidance into all the lacrimal glands and the success of the injection was verified by a post-injection ultrasound image (see FIG. 1 and FIG. 2). […] This variation explains why the blind injections recommended in the original method are often unsuccessful. This was confirmed by mixing the Con A solution with methylene blue and tracking its course after injection. In about ⅓ of the cases, Con A ended up outside the gland.
Four parameters of efficacy were evaluated instead of the usual one or two. They include (a) the tear break up time (TBUT), determined using 0.2% fluorescein over the eye and recording the time taken to develop black dots, lines or obvious disruption of the fluorescein film; (b) tear osmolarity, measured using TearLab Osmolarity Test and following the manufacturer's instructions (TearLab Corp., San Diego, Calif.); (3) Schirmer tear test (STT), determined using Schirmer strips (EagleVision, Denville, N.J.) inserted between the cornea and the palpebral conjunctiva at the mid-point of the lower lid and measuring the length of moistened strip at 5 min; and (4) tear lactoferrin levels measured by ELISA kit (MyBiosource, San Diego, Calif.) following the instructions of the manufacturer. All four have been used in clinical practice and correlate with the clinical activity of the disease. The STT is the least reliable and, as result, it is clinically used less than half as frequently as TBUT.
The injections of Con A to the lacrimal glands were repeated weekly as needed. When longer than a 1-week periods of study are needed, repeat injections prolong dry eye for at least 3 weeks, making the originally acute model chronic.
PS Suppresses Con A—Induced Dry Eye in Rabbits. The effect of PS on dry eye was determined in New Zealand White (NZW) rabbits, 2-3 kg (Charles River Labs, Waltham, Mass.). These rabbits were housed singly in rooms with strict temperature (70±5° F.) and humidity (45±5%) control and acclimated for at least 2 weeks prior to induction of dry eye by injection of Con A as above. NZW rabbits with Con A-induced dry eye (three sets of injections) were treated with PS formulated as nanoparticles and administered topically as eye drops 3×/day for 21 days, starting on the day of Con A injection. […] Similar results were obtained on days 5 and 14 (data not shown).
Using this model, we compared the effect of PS to that of cyclosporine and lifitegrast. Rabbits were treated for 6 days with PS as above or cyclosporine 0.05% or lifitegrast 5% eye drops 3×/day. In addition to determining TUBT, osmolarity and STT, we measured the levels of IL-8 and IL-1β in the ILGs of the rabbits harvested at euthanasia. […]

MMPs = assay: General MMP activity in rabbit cornea (FRET peptide); format: in vivo
Procedure: The general activity of MMPs was determined in the corneas of three groups of rabbits. This MMP activity assay employs a fluorescence resonance energy transfer (FRET) peptide as a generic MMP indicator. Rabbits were treated with PS 1.6% or ketorolac 0.5% eye drops topically applied to their eyes or were not treated (naïve group). Results in relative fluorescence units (RFU)/mg protein (mean±SEM). Naïve=1,328±123; PS=749±218; Ketoroloac=1,272±106 (p<0.03 vs PS).
In an acute experiment, naïve rabbits were treated with either PS or ketorolac (both administered topically) for 1 h and determined the activity of MMP in the cornea. This assay determines the activity of MMPs collectively in a given tissue.

IL-1β = IL-1β levels in the ILG of rabbits with DED (ELISA); format: in vivo, rabbit; conditions: Con A DED rabbits, 6 days, eye drops 3×/day; PS nanoparticles, cyclosporine 0.05%, lifitegrast 5%; mean ± SEM
Procedure: (§1) Using this model, we compared the effect of PS to that of cyclosporine and lifitegrast. Rabbits were treated for 6 days with PS as above or cyclosporine 0.05% or lifitegrast 5% eye drops 3×/day. In addition to determining TUBT, osmolarity and STT, we measured the levels of IL-8 and IL-1β in the ILGs of the rabbits harvested at euthanasia. Both of these cytokines are significant mediators of inflammation in DED. As shown in the table below, PS had statistically significant effects on TBUT, tear osmolarity, IL-8 and IL-1β levels. […] Of note, lifitegrast suppressed STT below the levels of the vehicle group and this suppression was statistically significant, but in the opposite direction for a useful therapeutic effect.
(§2) Moreover, for all three cytokines PS suppressed their unstimulated levels as well (62%, 84% and 4.7% reduction, respectively). In addition, PS suppressed the levels of IL-8 by 64% and IL-1β (not expressed by the cultured cells) by 61% in the ILG of rabbits treated with PS for 1 week compared to controls treated with vehicle (FIG. 8B). TGF-β was not detectable by the method in ILG homogenates. All these changes were statistically significant (p<0.001-0.04, except for the unstimulated TGF-β).

IL-8 = IL-8 levels in the ILG of rabbits with DED (ELISA); format: in vivo, rabbit; conditions: Con A DED rabbits, 6 days, eye drops 3×/day; PS nanoparticles, cyclosporine 0.05%, lifitegrast 5%; mean ± SEM
Procedure: as §1, §2

[2] = tested on: chorioallantoic membrane (CAM); assay: Chorioallantoic membrane (CAM) neovascularization assay; format: in vivo, chicken; conditions: VEGF alone; day 4; Mean ± SEM
Procedure: Second, the effect of PS on new vessel formation (neovascularization) was evaluated using the chorioallantoic membrane (CAM) assay. In this assay, fertilized white chicken eggs (SPF Premium, Charles River Laboratory, North Franklin, Conn.) were incubated at 37° C. in 70% humidity for 3 days. The embryos were then incubated ex vivo in a sterile Petri dish for 7 days. Gelatin sponges adsorbed with or without VEGF plus PS or water (vehicle control) were implanted on the CAM surface and the neovasculature was counted on day 4 post implantation under a dissecting microscope.

[3] = Con A DED rabbits, ketorolac 0.5%
[4] = rabbits, PS 1.6% or ketorolac 0.5% eye drops, mean±SEM
[5] = Con A DED rabbits, 6 days, eye drops 3×/day, PS nanoparticles, cyclosporine 0.05%, lifitegrast 5%, mean ± SEM

In the case of O=C(c1ccccc1)c1ccc2n1CCC2C(=O)O (stereo not shown) [Ketorolac, ketorolac], the “PGE2 levels in the cornea” value (PGE2; Con A DED rabbits) is reported as “suppressed nearly completely”, the “PGE2 levels in the cornea, % of the vehicle value” (PGE2; [3]) is reported as 1.3% and the “PGE2 levels in tears” value (PGE2; Con A DED rabbits, three eye drops at 0 and 1 h, tears at 2 h, PS 1.5%, ketorolac 0.5%, mean±SEM) is reported as 77.7 ± 8.7 ng/mL. For the same compound, the “PGE2 levels in the corneas” value (PGE2; [4]) was 247.2±187.4 pg/mg protein, the “TBUT, osmolarity and STT” value [1] was “failed to improve” and the “MMP activity in the cornea” value (MMPs; naïve rabbits, topical, 1 h) was “failed to affect”. For the same compound, the “general activity of MMPs in the corneas” value (MMPs; [4]) was 1,272±106 RFU/mg protein.
With CS(=O)(=O)c1cccc(C[C@H](NC(=O)c2c(Cl)cc3c(c2Cl)CCN(C(=O)c2ccc4ccoc4c2)C3)C(=O)O)c1 [Lifitegrast, lifitegrast, reference compound] the “IL-1β in the ILG” value (IL-1β) was 11.5 ± 1.9 pg/mg protein, the “IL-8 in the ILG” value (IL-8) was 9.0 ± 2.4 pg/mg protein and the Osmolarity [1, 5] was 290 ± 4.2 mOsm/L. The STT [1, 5] was 6.9 ± 0.7 mm and the TBUT [1, 5] was 9.1 ± 3.0 s.
With O=C(O)Cc1ccccc1Nc1c(Cl)cccc1Cl [diclofenac] the “PGE2 levels in the cornea” value (PGE2; Con A DED rabbits) was “suppressed nearly completely”, the “PGE2 levels in the cornea, % of the vehicle value” (PGE2; [3]) was 2.3% and the “TBUT, osmolarity and STT” value [1] was “failed to improve”.
In the case of VEGF [reference compound], the “# of new vessels” value [2] is reported as 62.3 ± 1.8.
